The target in this assay is GLP1R (Homo sapiens, UniProt P43220). In words: GLP1R/CRE-Luc luciferase reporter gene assay (agonist activity). The assay is classed as cell-based. The arrangement: host or cells: HKE293 (so in the source). Particulars: HKE293-Human GLP1R/CRE-luc cells, 5 h at 37° C., read-out: EC50 (nM) Assay 2. The procedure:
GLP1R-mediated agonist activity was determined with a cell-based functional assay utilizing a britelite plus luciferase reporter gene assay system. The stable cell line overexpress GLP1R and target response element. The stimulation with GLP1R agonist results in the upregulation of intracellular cAMP, which regulate the activities of cAMP-response element binding protein (CREB) and CREB-Luc. Reagents and equipment used in the assay are listed below, followed by the protocol.
• 1) Cell Line: HKE293-Human GLP1R/CRE-luc • 2) Complete Medium: DMEM+10% FBS+1×Penicillin-Streptomycin+400 μg/mL G418
• a) Seed HKE293-Human GLP1R/CRE-luc cells at 20,000 cells/well into 384 well assay plate (6007680-50, PE) using complete medium and incubate overnight. • b) Prepare 6×compound working solution with Medium. • c) Add 5 μL 6×compound working solution into cell plate, incubate 5 h at 37° C. • d) Add 20 μl britelite plus Luciferase Assay Reagent into each well of 384-well assay plate. • e) Record the luminescence value on Envision plate reader.
• 3.1% Activity is calculated as follow:
% Activity=(Signalcmpd−SignalAve_VC)/(SignalAve_PC−SignalAve_VC)×100. • 3.2 Calculate EC50 and Plot effect-dose curve of cmpds:
Y=Bottom+(Top−Bottom)/(1+10^((Log EC50−X)*HillSlope)) • X: log of agonist concentration; Y: % Activity.
(A reporter such as luciferase makes a cellular process visible.)

The structures appear in SMILES notation.

Sequence of GLP1R (P43220 24-463): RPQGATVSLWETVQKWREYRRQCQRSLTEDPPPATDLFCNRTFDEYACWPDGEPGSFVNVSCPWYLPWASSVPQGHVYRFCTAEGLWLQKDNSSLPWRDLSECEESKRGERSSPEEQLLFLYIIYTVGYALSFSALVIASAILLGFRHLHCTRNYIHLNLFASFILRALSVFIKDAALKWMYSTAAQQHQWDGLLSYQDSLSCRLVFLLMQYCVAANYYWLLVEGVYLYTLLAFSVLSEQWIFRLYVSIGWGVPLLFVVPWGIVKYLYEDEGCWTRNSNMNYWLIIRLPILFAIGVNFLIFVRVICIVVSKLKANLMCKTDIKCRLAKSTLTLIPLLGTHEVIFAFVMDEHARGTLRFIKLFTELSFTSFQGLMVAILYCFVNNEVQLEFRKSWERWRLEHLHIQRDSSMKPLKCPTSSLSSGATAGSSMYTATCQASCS

Usually EC50 stands for the concentration giving half of the maximal effect. For `COc1cc(C(=O)O)cc2c1nc(CN1CCC3(c4nccc(OCc5ccc(C#N)cc5OC(C)C)n4)CC3C1)n2C[C@@H]1CCO1` (stereo partly drawn) [Compound 1-40, 2-((6-(4-((4-cyano-2-isopropoxybenzyl)oxy)pyrimidin-2-yl)-3-azabicyclo[4.1.0]heptan-3-yl)methyl)-4-methoxy-1-(((S)-oxetan-2-yl)methyl)-1H-benzo[d]imidazole-6-carboxylic acid], the half-maximal effective concentration (EC50) worked out at 22.1 nM.

With `COc1c(COc2cccc(C34CCN(Cc5nc6c(OC)cc(C(=O)O)cc6n5C[C@@H]5CCO5)CC3C4)n2)ccc(C#N)c1F` (stereo partly drawn) [Compound 1-36, 2-((6-(6-((4-cyano-3-fluoro-2-methoxybenzyl)oxy)pyridin-2-yl)-3-azabicyclo[4.1.0]heptan-3-yl)methyl)-4-methoxy-1-(((S)-oxetan-2-yl)methyl)-1H-benzo[d]imidazole-6-carboxylic acid], the EC50 is 9.38 nM.

For `COc1cc(C#N)ccc1COc1ccnc(C23CCN(Cc4nc5c(OC)cc(C(=O)O)cc5n4C[C@@H]4CCO4)CC2C3)n1` (single isomer, unassigned) [Compound 1-38-A], the EC50 came to 16 nM.

As for `COc1cc(C#N)ccc1COc1cccc(C23CCN(Cc4nc5c(C6CC6)cc(C(=O)O)cc5n4C[C@@H]4CCO4)CC2C3)n1` (stereo partly drawn) [Compound 1-19, 2-((6-(6-((4-cyano-2-methoxybenzyl)oxy)pyridin-2-yl)-3-azabicyclo[4.1.0]heptan-3-yl)methyl)-4-cyclopropyl-1-(((S)-oxetan-2-yl)methyl)-1H-benzo[d]imidazole-6-carboxylic acid], the EC50 came out at 19 nM.

Turning to `COc1cc(C(F)(F)F)ccc1COc1ccnc(C23CCN(Cc4nc5c(OC)cc(C(=O)O)cc5n4C[C@@H]4CCO4)CC2C3)n1` (stereo partly drawn) [Compound 1-34, 4-methoxy-2-((6-(4-((2-methoxy-4-(trifluoromethyl)benzyl)oxy)pyrimidin-2-yl)-3-azabicyclo[4.1.0]heptan-3-yl)methyl)-1-(((S)-oxetan-2-yl)methyl)-1H-benzo[d]imidazole-6-carboxylic acid], the EC50 came out at 1.06 nM.

On to `COc1cc(C#N)ccc1COc1cccc(C23CCN(Cc4nc5c(F)cc(C(=O)O)cc5n4C[C@@H]4CCO4)CC2C3)n1` (stereo partly drawn) [Compound 1-23, 2-((6-(6-((4-cyano-2-methoxybenzyl)oxy)pyridin-2-yl)-3-azabicyclo[4.1.0]heptan-3-yl)methyl)-4-fluoro-1-(((S)-oxetan-2-yl)methyl)-1H-benzo[d]imidazole-6-carboxylic acid], for which the EC50 was determined as 3.05 nM.

`COc1cc(Cl)ccc1COc1ccnc(C23CCN(Cc4nc5c(OC)cc(C(=O)O)cc5n4C[C@@H]4CCO4)CC2C3)n1` (stereo partly drawn) [Compound 1-47, 2-((6-(4-((4-chloro-2-methoxybenzyl)oxy)pyrimidin-2-yl)-3-azabicyclo[4.1.0]heptan-3-yl)methyl)-4-methoxy-1-(((S)-oxetan-2-yl)methyl)-1H-benzo[d]imidazole-6-carboxylic acid]: the EC50 turned out to be 3.85 nM.

For `COc1cc(C#N)ccc1COc1cncc(C23CCN(Cc4nc5ccc(C(=O)O)cc5n4C[C@@H]4CCO4)CC2C3)n1` (stereo partly drawn) [Compound 1-21, 2-((6-(6-((4-cyano-2-methoxybenzyl)oxy)pyrazin-2-yl)-3-azabicyclo[4.1.0]heptan-3-yl)methyl)-1-(((S)-oxetan-2-yl)methyl)-1H-benzo[d]imidazole-6-carboxylic acid], the EC50 came to 39.1 nM.

As for `COc1cc(C#N)ccc1COc1nc(C23CCN(Cc4nc5c(OC)cc(C(=O)O)cc5n4C[C@@H]4CCO4)CC2C3)ncc1F` (stereo partly drawn) [Compound 1-43, 2-((6-(4-((4-cyano-2-methoxybenzyl)oxy)-5-fluoropyrimidin-2-yl)-3-azabicyclo[4.1.0]heptan-3-yl)methyl)-4-methoxy-1-(((S)-oxetan-2-yl)methyl)-1H-benzo[d]imidazole-6-carboxylic acid], the concentration for a half-maximal effect (EC50) stood at 0.49 nM.

`COc1cc(C#N)ccc1COc1ccnc(C23CCN(Cc4nc5ccc(C(=O)O)cc5n4C[C@@H]4CCO4)CC2C3)n1` (single isomer, unassigned) [Compound 1-26-B]: the EC50 was 7.54 nM.

In the case of `COc1cc(C#N)ccc1COc1cccc(C23CCN(Cc4nc5c(OC)cc(C(=O)O)cc5n4C[C@@H]4CCO4)CC2C3)n1` (stereo partly drawn) [Compound 1-24, 2-((6-(6-((4-cyano-2-methoxybenzyl)oxy)pyridin-2-yl)-3-azabicyclo[4.1.0]heptan-3-yl)methyl)-4-methoxy-1-(((S)-oxetan-2-yl)methyl)-1H-benzo[d]imidazole-6-carboxylic acid], the EC50 worked out at 0.37 nM.

On to `COc1cc(C#N)ccc1COc1ccnc(C23CCN(Cc4nc5c(Cl)cc(C(=O)O)cc5n4C[C@@H]4CCO4)CC2C3)n1` (stereo partly drawn) [Compound 1-46, 4-chloro-2-((6-(4-((4-cyano-2-methoxybenzyl)oxy)pyrimidin-2-yl)-3-azabicyclo[4.1.0]heptan-3-yl)methyl)-1-(((S)-oxetan-2-yl)methyl)-1H-benzo[d]imidazole-6-carboxylic acid], for which the EC50 was found to be 2.6 nM.

As for `COc1cc(C#N)ccc1COc1ccnc(C23CCN(Cc4nc5c(OC(C)C)cc(C(=O)O)cc5n4C[C@@H]4CCO4)CC2C3)n1` (stereo partly drawn) [Compound 1-42, 2-((6-(4-((4-cyano-2-methoxybenzyl)oxy)pyrimidin-2-yl)-3-azabicyclo[4.1.0]heptan-3-yl)methyl)-4-isopropoxy-1-(((S)-oxetan-2-yl)methyl)-1H-benzo[d]imidazole-6-carboxylic acid], the EC50 is 6.5 nM.

`COc1cc(C#N)ccc1COc1cccc(C23CCN(Cc4nc5c(C)cc(C(=O)O)cc5n4C[C@@H]4CCO4)CC2C3)n1` (stereo partly drawn) [Compound 1-18, 2-((6-(6-((4-cyano-2-methoxybenzyl)oxy)pyridin-2-yl)-3-azabicyclo[4.1.0]heptan-3-yl)methyl)-4-methyl-1-(((S)-oxetan-2-yl)methyl)-1H-benzo[d]imidazole-6-carboxylic acid]: the EC50 was 13.4 nM.

As to `COc1cc(C#N)ccc1COc1cccc(C23CCN(Cc4nc5c(C(C)=O)cc(C(=O)O)cc5n4C[C@@H]4CCO4)CC2C3)n1` (stereo partly drawn) [Compound 1-20, 4-acetyl-2-((6-(6-((4-cyano-2-methoxybenzyl)oxy)pyridin-2-yl)-3-azabicyclo[4.1.0]heptan-3-yl)methyl)-1-(((S)-oxetan-2-yl)methyl)-1H-benzo[d]imidazole-6-carboxylic acid], the EC50 came out at 9.67 nM.

With `[2H]C([2H])([2H])Oc1cc(C(=O)O)cc2c1nc(CN1CCC3(c4cccc(OCc5ccc(C#N)cc5OC)n4)CC3C1)n2C[C@@H]1CCO1` (stereo partly drawn) [Compound 1-32, 2-((6-(6-((4-cyano-2-methoxybenzyl)oxy)pyridin-2-yl)-3-azabicyclo[4.1.0]heptan-3-yl)methyl)-4-(methoxy-d3)-1-(((S)-oxetan-2-yl)methyl)-1H-benzo[d]imidazole-6-carboxylic acid], the EC50 worked out at 0.49 nM.

For the compound `COc1cc(C#N)ccc1COc1cccc(C23CCN(Cc4nc5c(OC(F)(F)F)cc(C(=O)O)cc5n4C[C@@H]4CCO4)CC2C3)n1` (stereo partly drawn) [Compound 1-22, 2-((6-(6-((4-cyano-2-methoxybenzyl)oxy)pyridin-2-yl)-3-azabicyclo[4.1.0]heptan-3-yl)methyl)-1-(((S)-oxetan-2-yl)methyl)-4-(trifluoromethoxy)-1H-benzo[d]imidazole-6-carboxylic acid], the EC50 worked out at 14.4 nM.

For the origin of these results see patent US20240382471A1, “GLUCAGON-LIKE PEPTIDE-1 RECEPTOR MODULATORS AND USES THEREOF” (HEPAGENE THERAPEUTICS (HK) LIMITED, priority 2021, published 2024).
